Target: BRD4 (Homo sapiens (Human), UniProt O60885)
Conditions: read-out: BRD4 IC50 (μM gmean)

Row | Compound | IC50 [µM]
1 | COC(=O)N1c2ccc3c(nc(Cc4ccccc4)n3[C@@H]3CC[C@@H](C(=O)O)OC3)c2CC[C@@H]1C [Example 72, (2S,5R)-5-((S)-2-benzyl-6-(methoxycarbonyl)-7-methyl-6,7,8,9-tetrahydro-3H-imidazo[4,5-f]quinolin-3-yl)tetrahydro-2H-pyran-2-carboxylic Acid] | 1 to 1000
2 | COC(=O)N1c2ccc3c(nc(CCc4ccccc4)n3C3CC4(CNC4)C3)c2CC[C@@H]1C [Example 81] | 1 to 1000
3 | COC(=O)N1c2ccc3c(nc(Cc4ccccc4)n3C3CC4CCC(C3)N4)c2CC[C@@H]1C (some centres unmarked) [Example 83] | 1 to 1000
4 | COC(=O)N1c2ccc3c(nc(Cc4ccccc4)n3C[C@@H]3CCCNC3)c2CC[C@@H]1C [Example 86] | 1 to 1000
5 | COC(=O)N1c2ccc3c(nc(Cc4ccccc4)n3C[C@H]3CCCNC3)c2CC[C@@H]1C [Example 87] | 1 to 1000
6 | COC(=O)N1c2ccc3c(nc(Cc4ccccc4)n3C3CCNCC3)c2CC[C@@H]1C [Example 90] | 1 to 1000
7 | COC(=O)N1c2ccc3c(nc(Cc4ccccc4)n3CC3CCNCC3)c2CC[C@@H]1C [Example 93] | 1 to 1000
8 | COC(=O)N1c2ccc3c(nc(Cc4ccccc4)n3C3CC4(CNC4)C3)c2CC[C@@H]1C [Example 94] | 1 to 1000
9 | COC(=O)N1c2ccc3c(nc(Cc4ccccc4)n3C3CC4(CCNCC4)C3)c2CC[C@@H]1C [Example 95] | 1 to 1000
10 | COC(=O)N1c2ccc3c(nc(Cc4ccccc4)n3C3CCC4(CC3)CNC4)c2CC[C@@H]1C [Example 96] | 1 to 1000
11 | COC(=O)N1c2ccc3c(nc(Cc4ccccc4)n3CC3CNC3)c2CC[C@@H]1C [Example 97] | 1 to 1000
12 | COC(=O)N1c2ccc3c(nc(Cc4ccccc4)n3C3CC4CNCC4C3)c2CC[C@@H]1C (some centres unmarked) [Example 98] | 1 to 1000
13 | COC(=O)N1c2ccc3c(nc(Cc4cccc(OC(C)C)c4)n3C3CC4(CNC4)C3)c2CC[C@@H]1C [Example 99] | 1 to 1000
14 | COC(=O)N1c2ccc3c(nc(CCc4cccc(OC)c4)n3C3CC4(CNC4)C3)c2CC[C@@H]1C [Example 100] | 1 to 1000
15 | COC(=O)N1c2ccc3c(nc(CCc4cccc(OC(C)C)c4)n3C3CC4(CNC4)C3)c2CC[C@@H]1C [Example 101] | 1 to 1000
16 | COC(=O)N1c2ccc3c(nc(Cc4cccc(F)c4)n3C3CCNCC3)c2CC[C@@H]1C [Example 102] | 1 to 1000
17 | COC(=O)N1c2ccc3c(nc(Cc4ccc(OC)c(F)c4)n3C3CCNCC3)c2CC[C@@H]1C [Example 103] | 1 to 1000
18 | COC(=O)N1c2ccc3c(nc(CCc4ccccc4)n3C3CCNCC3)c2CC[C@@H]1C [Example 104] | 1 to 1000
19 | COC(=O)N1c2ccc3c(nc(Cc4ccc(OC)cc4)n3C3CCNCC3)c2CC[C@@H]1C [Example 107] | 1 to 1000
20 | COC(=O)N1c2ccc3c(nc(Cc4ccc(OC)cc4)n3C3CCC4(CC3)CNC4)c2CC[C@@H]1C [Example 108] | 1 to 1000
21 | COC(=O)N1c2ccc3c(nc(CCn4cccn4)n3C3CCC4(CC3)CNC4)c2CC[C@@H]1C [Example 109] | 1 to 1000

Row | Compound | IC50 [µM]
22 | COC(=O)N1c2ccc3c(nc(Cc4cccc(OC)c4)n3C3CC4(CNC4)C3)c2CC[C@@H]1C [Example 110] | 1 to 1000
23 | COC(=O)N1c2ccc3c(nc(Cc4ccccc4)n3[C@H]3CCC34CCNCC4)c2CC[C@@H]1C [Example 111, methyl (S)-2-benzyl-7-methyl-3-((S)-7-azaspiro[3.5]nonan-1-yl)-3,7,8,9-tetrahydro-6H-imidazo[4,5-f]quinoline-6-carboxylate] | 1 to 1000
24 | COC(=O)N1c2ccc3c(nc(Cc4ccccc4)n3[C@@H]3CCC34CCNCC4)c2CC[C@@H]1C [Example 112, methyl (S)-2-benzyl-7-methyl-3-((R)-7-azaspiro[3.5]nonan-1-yl)-3,7,8,9-tetrahydro-6H-imidazo[4,5-f]quinoline-6-carboxylate] | 1 to 1000
25 | COC(=O)N1c2ccc3c(nc(C[C@@H](C(=O)O)c4ccccc4)n3C)c2CC[C@@H]1C [Example 133, (2R)-3-[(7S)-6-(methoxycarbonyl)-3,7-dimethyl-3H,6H,7H,8H,9H-imidazo[4,5-f]quinolin-2-yl]-2-phenylpropanoic Acid] | 1 to 1000
26 | COC(=O)N1c2ccc3c(nc(C[C@H](C(=O)O)c4ccccc4)n3C)c2CC[C@@H]1C [Example 134, (2S)-3-[(7S)-6-(methoxycarbonyl)-3,7-dimethyl-3H,6H,7H,8H,9H-imidazo[4,5-f]quinolin-2-yl]-2-phenylpropanoic Acid] | 1 to 1000
27 | COC(=O)N1c2ccc3c(nc(C[C@H](C(=O)O)c4ccccc4)n3C)c2CC[C@@H]1C [Example 135, (S)-3-((S)-6-(methoxycarbonyl)-3,7-dimethyl-6,7,8,9-tetrahydro-3H-imidazo[4,5-f]quinolin-2-yl)-2-phenylpropanoic Acid] | 1 to 1000
28 | COC(=O)N1c2ccc3c(nc(C[C@@H](C(=O)O)c4ccccc4)n3C)c2CC[C@@H]1C [Example 136, (R)-3-((S)-6-(methoxycarbonyl)-3,7-dimethyl-6,7,8,9-tetrahydro-3H-imidazo[4,5-f]quinolin-2-yl)-2-phenylpropanoic Acid] | 1 to 1000
29 | COC(=O)N1c2ccc3c(nc(C[C@@H](C(=O)O)c4ccccc4)n3CCN(C)C)c2CC[C@@H]1C [Example 137, (R)-3-((S)-3-(2-(dimethylamino)ethyl)-6-(methoxycarbonyl)-7-methyl-6,7,8,9-tetrahydro-3H-imidazo[4,5-f]quinolin-2-yl)-2-phenylpropanoic Acid] | 1 to 1000
30 | COC(=O)N1c2ccc3c(nc(C[C@H](C(=O)O)c4ccccc4)n3CCN(C)C)c2CC[C@@H]1C [Example 138, (S)-3-((S)-3-(2-(dimethylamino)ethyl)-6-(methoxycarbonyl)-7-methyl-6,7,8,9-tetrahydro-3H-imidazo[4,5-f]quinolin-2-yl)-2-phenylpropanoic Acid] | 1 to 1000
31 | COC(=O)N1c2ccc3c(nc(CCn4cccn4)n3CCN3CCOCC3)c2CC[C@@H]1C [Example 226] | 1 to 1000
32 | COC(=O)N1c2ccc3c(nc(CCn4cccn4)n3CCN3CCN(C)CC3)c2CC[C@@H]1C [Example 227] | 1 to 1000
33 | COC(=O)N1c2ccc3c(nc(CCn4cccn4)n3CCN3CC4(COC4)C3)c2CC[C@@H]1C [Example 228] | 1 to 1000
34 | COC(=O)N1c2ccc3c(nc(CCn4ccccc4=O)n3CCN3CCNCC3)c2CC[C@@H]1C [Example 229] | 1 to 1000
35 | COC(=O)N1c2ccc3c(nc(CCn4ccccc4=O)n3CCN3CCN(C)CC3)c2CC[C@@H]1C [Example 230] | 1 to 1000
36 | COC(=O)N1c2ccc3c(nc(CCc4ccccc4)n3CCN(C)C)c2CC[C@@H]1C [Example 242, methyl-(7S)-3-[2-(dimethylamino)ethyl]-7-methyl-2-(2-phenylethyl)-3H,6H,7H,8H,9H-imidazo[4,5-f]quinoline-6-carboxylate] | 1 to 1000
37 | COC(=O)N1c2ccc3c(nc(CCc4ccccc4)n3CCN3CCOCC3)c2CC[C@@H]1C [Example 245] | 1 to 1000
38 | COC(=O)N1c2ccc3c(nc(C)n3CCN3CCOCC3)c2CC[C@@H]1C [Example 248] | 1 to 1000
39 | COC(=O)N1c2ccc3c(nc(C(C)(C)C)n3CCN3CCOCC3)c2CC[C@@H]1C [Example 249] | 1 to 1000
40 | COC(=O)N1c2ccc3c(nc(-c4ccccc4)n3CCN3CCOCC3)c2CC[C@@H]1C [Example 250] | 1 to 1000
41 | COC(=O)N1c2ccc3c(nc(CCC4CC4)n3CCN3CCOCC3)c2CC[C@@H]1C [Example 251] | 1 to 1000

— US11292791B2 (priority 2017, dated 2022)
